Test results reported in patent US20110229878A1, “HUMAN CONSENSUS SODIUM-IODIDE SYMPORTER REPRESSOR (NIS-REPRESSOR) BINDING SITE” (priority 2010, published 2011).

How the values were obtained:
NIS transcription = settings: Venkataraman et al. 1999; cited from earlier work
NIS-repressor = test: EMSA pattern using KAK1 nuclear extract after epigenetic agents; format: binding, human
Protocol: EMSA: EMSA is carried out as follows: 3 μL nuclear extract, 1 μL end-labeled probe, 1 μL Poly(dI-dC)-Poly(dI-dC) (0.01 U/μL in 100 mM KCl, 20 mM HEPES, pH 8.0), 1 μL Salmon sperm DNA (500 ng/μL in nuclease-free water), 5 μL 4×EMSA buffer (400 mM KCl, 80 mM HEPES, 0.8 mM EDTA, 80% glycerol, 0.5 mM DTT) are mixed and distilled nuclease-free water is added to bring the reaction mix to 18 μL. The mixture is incubated on ice for 30 minutes, followed by addition of 2 μL of loading buffer (1×EMSA buffer, 0.25% Bromophenol Blue). A 7% non-denaturing PAGE gel is pre-run in 0.5×TBE (5.4 g/L Tris base, 2.75 g/L boric acid, 1 mM EDTA, pH 8.) for 30 minutes at 100V. The entire 20 μL EMSA reaction is loaded into one well of the polyacrylamide gel and run at 100V until the Bromophenol Blue dye has migrated to the end of the gel. The gel is dried on DEAE paper using a standard gel dryer and the dried gel is exposed to X-ray film. A retarded signal relative to free end-labeled probe indicates athe presence of a positive protein-probe interaction complex. When un-labeled DNA probe is added in the EMSA reaction mixture, loss of EMSA signal indicates the signal is probe-specific.

chromatin compaction = settings: previous genomic DNase I digestion studies (Li et al. 2007); cited from earlier work
hNIS = test: Endogenous hNIS mRNA / transcription in thyroid cancer cells (cell line not given); format: cell-based, human
Description: Multiple cellular and nuclear factors are reported to be important for hNIS transcription, including: TSH (thyrotropin)/receptor (TSHr) (Riedel, et al. 2001), TTF-1 (Schmitt, et al. 2001), and Pax-8 (Pasca di Magliano, et al. 2000), but there are no clear examples of repressing transcription factors in thyroid cells or thyroid carcinomas. […] We also characterized NIS-repressor and investigated the identities of its components and mechanisms of its activity. This involved defining NRBS-P to a narrower region of hNIS promoter and utilizing it to probe nuclear extract, analyzing the probe-bound proteins with liquid chromatography coupled with tandem mass spectrometry (LC/MS/MS), to characterize NIS-repressor components. […] Pharmacological inhibition of PARP-1 activity with PJ34, a PARP-1 inhibitor, stimulated endogenous hNIS mRNA levels, providing evidence that PARP-1 acts as a negative regulatory factor for hNIS transcription and is a likely component of the NIS-repressor complex.
In summary, a second core sequence in the human sodium-iodine symporter (hNIS) promoter, NRBS-D, which is a binding site for a trans-active transcriptional repressor, NIS-repressor has been defined. […] A known inhibitor of PARP-1 enzymatic activity, PJ34, causes increased endogenous transcription of hNIS in genotypically verified thyroid cancer cells.

[1] = test system: hNIS transcription in Cal-62 cells; test: Endogenous hNIS transcription in Cal-62 cells; format: cell-based, human
Description: (§1) Furthermore. […] PJ34 inhibition of PARP1 enzymatic activity may compromise the assembly, stability, or activity of the NIS-repressor protein complex.

[2] = test system: hNIS transcription in KAK1 cells; test: Endogenous hNIS transcription in KAK1 cells; format: cell-based, human
Description: as §1

NIS promoter constructs = test: Luciferase activity from NIS promoter constructs; format: cell-based, human
Description: as §1

[3] = test system: NIS-repressor (KAK1 nuclear extract); test: EMSA competition against radiolabeled Probe-A (NRBS-P), KAK1 nuclear extract; format: binding, human; settings: 60× unlabeled annealed double-stranded oligonucleotide
Description: FIGS. 2A and 2B show the results of EMSA analysis followed by […] to define the core sequence for NRBS-D and cross competition of NRBS-D with NRBS-P. FIG. 2A depicts EMSA using KAK1 nuclear extract probed with radiolabeled SHIFT-4 containing NRBS-D in lanes 2 to 15. Unlabeled (30×) SHIFT-4, 4.1, 4.4, 4.2, 4.3, 4.5, 4.6, 4.7, and Probe-A were included in EMSA reactions in lanes 3, 4, 5, 6, 7, 11, 12, 13, and 15, respectively. The unlabeled (60×) annealed double-stranded oligonucleotides ds-411, ds-412, ds-413, and Comp-1 were added to the EMSA reactions in lanes 8, 9, 10, and 14, respectively. Lane 2 had no additional unlabeled competitor, and lane 1 contained radiolabeled SHIFT-4 probe only. In FIG. 2B, KAK1 nuclear extract was probed with radiolabeled Probe-A. The unlabeled 30× Probe-A, 60× annealed double-stranded Comp-1, and 60× annealed double-stranded ds-414 were added in EMSA reactions in lane 3, 4, and 5, respectively. The arrows point to the probe-specific bands.
EMSA: EMSA is carried out as follows: 3 μL nuclear extract, 1 μL end-labeled probe, 1 μL Poly(dI-dC)-Poly(dI-dC) (0.01 U/μL in 100 mM KCl, 20 mM HEPES, pH 8.0), 1 μL Salmon sperm DNA (500 ng/μL in nuclease-free water), 5 μL 4×EMSA buffer (400 mM KCl, 80 mM HEPES, 0.8 mM EDTA, 80% glycerol, 0.5 mM DTT) are mixed and distilled nuclease-free water is added to bring the reaction mix to 18 μL. […]

Compound | NIS transcription (NIS transcription) | effect on EMSA pattern (NIS-repressor) | effect on chromatin compaction (chromatin compaction) | other results
Nc1ncn([C@@H]2O[C@H](CO)[C@@H](O)[C@H]2O)c(=O)n1 [5-azacytidine] | restore | did not alter | failed to demonstrate any effect | –
CN(C)CC(=O)Nc1ccc2[nH]c(=O)c3ccccc3c2c1 [PJ34] | – | – | – | endogenous transcription of hNIS (hNIS; genotypically verified thyroid cancer cells): increased; endogenous hNIS mRNA levels (hNIS; pharmacological inhibition of PARP-1 activity): stimulated; endogenous hNIS transcription [1]: stimulated; endogenous hNIS transcription [2]: stimulated; luciferase activity from NIS promoter constructs (NIS promoter constructs): effectively stimulated
CCCC(=O)[O-].[Na+] [sodium butyrate] | restore | did not alter | failed to demonstrate any effect | –
ds-414: annealed double-stranded oligonucleotide 5′-ccttgttacagatggggaaactaaggccca-3′, −987 to −958 (SEQ ID NO.: 6) (sense CCTTGTTACAGATGGGGAAACTAAGGCCCA; annealed double-stranded unlabeled competitor, further chemistry not given here) | – | – | – | competition against radiolabeled Probe-A in EMSA [3]: strong competition
